The supplement of paper PMC3974653
Counter-ions that a name gives are not always drawn.

The compounds below were run on MTT (mouse pheochromocytoma) (assay: IC50 of cell viability (ATP content)). Details: (24 or 48 h).
How it was run: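 Library compounds in DMSO (23 nl by pintool, 8 concentrations, final 0.5 nM to 46 µM) were applied for 24 or 48 hrs to MTT mouse pheochromocytoma cells that had been cultured overnight at 37°C, 5% CO2 in white 1536-well plates. Cell viability was measured by CellTiter-Glo ATP luminescence, read after 15 minutes, with positive-control wells set at 100% and DMSO wells at 0%. A four-parameter logistic fit of the normalised signals yielded the IC50.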

Row | IC50 of cell viability [µM] | Compound
1 | > 46 | CN(Cc1ccc(C(C)(C)C)cc1)Cc1cccc2ccccc12 [Butenafina]
2 | > 46 | Clc1ccc(CC[C@H](Cn2ccnc2)Sc2c(Cl)cccc2Cl)cc1 [Butoconazole nitrate]
3 | > 46 | CCCCOC(=O)c1ccc(O)cc1 [Butylparaben]
4 | > 46 | OC(=O)CN(CC(O)=O)CC1=CC/2=C(OC/3=C/C(=O)/C(=C\C3=C2C4=CC=CC=C4C(O)=O)CN(CC(O)=O)CC(O)=O)C=C1O [CALCEIN]
5 | > 46 | O=C(Nc1ccc(C(=O)O)c(O)c1)c1ccccc1 [CALCII BENZAMIDOSALICYLAS]
6 | > 46 | CN(C)C(=O)COC(=O)Cc1ccc(OC(=O)c2ccc(NC(=N)N)cc2)cc1 [CAMOSTAT MESILATE]
7 | > 46 | N=C1NCCC(C2NC(=O)/C(=C/NC(N)=O)NC(=O)C(CNC(=O)CC(N)CCCN)NC(=O)C(CO)NC(=O)C(N)CNC2=O)N1 (stereo unspecified) [CAPREOMYCIN SULFATE]
8 | > 46 | CCN(CC)CCOC(=O)C1(c2ccccc2)CCCC1 [CARAMIPHEN EDISYLATE]
9 | > 46 | COC(=O)N/N=C/c1c[n+]([O-])c2ccccc2[n+]1[O-] [CARBADOX]
10 | > 46 | CN1C2=CC(=O)/C(=N\NC(N)=O)C=C2CC1S(=O)(=O)[O-] (stereo unspecified) [CARBAZOCHROME SODIUM SULFONATE]
11 | > 46 | CC1(C)SC2C(NC(=O)C(C(=O)[O-])c3ccccc3)C(=O)N2C1C(=O)[O-].[Na+].[Na+] (stereo unspecified) [CARBENICILLIN DISODIUM]
12 | > 46 | C[C@@](Cc1ccc(O)c(O)c1)(NN)C(=O)O [CARBIDOPA]
13 | > 46 | CO[C@@H]1[C@@H](OC2OC(C)C(OC3CC(C)(O)C(OC(=O)CC(C)C)C(C)O3)C(N(C)C)C2O)[C@@H](CC=O)C[C@@H](C)C(=O)C=CC2O[C@H]2C[C@@H](C)OC(=O)C[C@H]1OC(C)=O (stereo partly specified) [CARBOMYCIN]
14 | > 46 | CCC(=O)c1ccc2c(c1)N(CCCN1CCN(CCO)CC1)c1ccccc1S2 [CARPHENAZINE MALEATE]
15 | > 46 | CC(C(=O)O)c1ccc2c(c1)[nH]c1ccc(Cl)cc12 (stereo unspecified) [CARPROFEN]
16 | > 46 | NC(=O)OC[C@@H]1[C@H](NC(=O)/C(=N/OCC(=O)[O-])c2csc(N)n2)C(=O)N1S(=O)(=O)[O-] [CARUMONAM SODIUM]
17 | > 46 | COc1ccccc1OCCNCC(O)COc1cccc2[nH]c3ccccc3c12.O=C(O)C(O)C(O)C(=O)O (stereo unspecified) [CARVEDILOL TARTRATE]
18 | > 46 | N[C@@H](C(=O)N[C@H]1[C@H]2SC\C(=C(/N2C1=O)C(O)=O)CSC3=C[NH]N=N3)C4=CC=C(O)C=C4 [CEFATRIZINE]
19 | > 46 | C=CC1=C(C(=O)O)N2C(=O)C(NC(=O)/C(=N\O)c3csc(N)n3)C2SC1 (stereo unspecified) [CEFDINIR]
20 | > 46 | CO/N=C(\C(=O)NC1C(=O)N2C(C(=O)OCOC(=O)C(C)(C)C)=C(/C=C\c3scnc3C)CSC12)c1csc(N)n1 (stereo unspecified) [CEFDITORIN PIVOXIL]
21 | > 46 | CO/N=C(\C(=O)N[C@@H]1C(=O)N2C(C(=O)OCOC(=O)C(C)(C)C)=C(C)CS[C@H]12)c1csc(N)n1 [CEFETAMET PIVOXIL HCl]
22 | > 46 | CO/N=C(/C(=O)N[C@@H]1C(=O)N2C(C(=O)O)=C(CSc3nnnn3C)CS[C@H]12)c1csc(N)n1 [CEFMENOXIME HYDROCHLORIDE]
23 | > 46 | CO[C@@]1(NC(=O)CSC[C@@H](N)C(=O)O)C(=O)N2C(C(=O)O)=C(CSc3nnnn3C)CS[C@@H]21 [CEFMINOX SODIUM]
24 | > 46 | O=C([O-])C1=C(CSc2nnnn2CS(=O)(=O)[O-])CS[C@@H]2[C@H](NC(=O)[C@H](O)c3ccccc3)C(=O)N12 [CEFONICID SODIUM]
25 | > 46 | [Na+].CCN1CCN(C(=O)NC(C(=O)NC2C3SC\C(=C(/N3C2=O)C([O-])=O)CSC4=NN=N[N]4C)C5=CC=C(O)C=C5)C(=O)C1=O (stereo unspecified) [CEFOPERAZONE SODIUM]
26 | > 46 | CO/N=C(/C(=O)N[C@@H]1C(=O)N2C(C(=O)O)=C(C[n+]3ccc(N)n3CCO)CS[C@H]12)c1csc(N)n1 [CEFOSELIS SULFATE]
27 | > 46 | CO/N=C(/C(=O)N[C@@H]1C(=O)N2C(C(=O)[O-])=C(C[n+]3ccn4ncccc43)CS[C@H]12)c1nsc(N)n1 [CEFOZOPRAN HYDROCHLORIDE]
28 | > 46 | Cc1cc(O)c(C(=O)N[C@@H](C(=O)N[C@@H]2C(=O)N3C(C(=O)O)=C(CSc4nnnn4C)CS[C@H]23)c2ccc(O)cc2)cn1 [CEFPIRAMIDE SODIUM]
29 | > 46 | CO/N=C(\C(=O)N[C@@H]1C(=O)N2C(C(=O)[O-])=C(C[n+]3cccc4c3CCC4)CS[C@H]12)c1csc(N)n1 [CEFPIROME SULPHATE]

The remaining lines, values behind:

Row | Compound | IC50 of cell viability [µM]
30 | C[S+](=O)([O-])OCCCCO[S+](C)(=O)[O-] [Busulfan] | > 46
31 | CCCCN(CCCC)CCCOC(=O)c1ccc(N)cc1 [Butacaine] | > 46
32 | CCCCNC(C)(C)[PH](=O)O [Butafosfan] | > 46
33 | CCC(C(=O)OCCOCCN(CC)CC)c1ccccc1 (stereo unspecified) [Butamirate citrate] | > 46
34 | OC(C#CCN1CCCC1)(c1ccccc1)c1ccccc1 [Butinolina] | > 46
35 | NCC[C@H](O)C(=O)N[C@@H]1C[C@@H](N)[C@@H](O[C@@H]2O[C@@H](CN)[C@@H](O)[C@@H](O)[C@H]2N)[C@@H](O[C@@H]2O[C@@H](CO)[C@@H](O)[C@H]2O)[C@H]1O [Butirosin disulfate salt] | > 46
36 | CCCC(=O)OC(C(Cl)(Cl)Cl)P(=O)(OC)OC (stereo unspecified) [Butonate] | > 46
37 | CCCCOC(=O)c1ccccc1C(=O)OCc1ccccc1 [Butyl benzyl phthalate] | > 46
38 | Cc1cc(C(C)(C)C)c(O)c(C(C)(C)C)c1 [Butylated hydroxytoluene] | > 46
39 | Cc1cc(-c2ccc(/N=N/c3ccc4c([S+](=O)([O-])O)cc([S+](=O)([O-])O)c(N)c4c3O)c(C)c2)ccc1/N=N/c1ccc2c([S+](=O)([O-])O)cc([S+](=O)([O-])O)c(N)c2c1O [C.I. Direct Blue 53] | > 46
40 | C=CCN1CC(C(=O)N(CCCN(C)C)C(=O)NCC)CC2c3cccc4[nH]cc(c34)CC21 (stereo unspecified) [CABERGOLINE] | > 46
41 | C=C1/C(=C\C=C2/CCC[C@]3(C)[C@@H]([C@H](C)/C=C/[C@@H](O)C4CC4)CC[C@@H]23)C[C@@H](O)C[C@@H]1O [CALCIPOTRIENE] | > 46
42 | C=C1/C(=C\C=C2/CCC[C@]3(C)[C@@H]([C@H](C)CCCC(C)(C)O)CC[C@@H]23)C[C@@H](O)C[C@@H]1O [CALCITRIOL] | > 46
43 | CC(C)(CO)C(O)C(=O)NCCCC(=O)[O-] (stereo unspecified) [CALCIUM HOPANTENATE] | > 46
44 | C=C1[C@@H]2CC[C@H](C2)C1(C)C [CAMPHENE] | > 46
45 | C[C@@]12CCC(=O)/C=C1/C=C\C3C2CC[C@]4(C)C3CC[C@@]45CCC(=O)O5 (stereo partly specified) [CANRENONE] | > 46
46 | CC1=C(/C=C/C(C)=C/C=C/C(C)=C/C=C/C=C(C)/C=C/C=C(C)/C=C/C2=C(C)C(=O)CCC2(C)C)C(C)(C)CCC1=O [CANTHAXANTHIN (euglenanone)] | > 46
47 | C[C@H](CS)C(=O)N1CCC[C@H]1C(=O)O [CAPTOPRIL] | > 46
48 | CC(C[N+](C)(C)C)OC(N)=O (stereo not drawn) [CARBAMYL-beta-METHYLCHOLINE] | > 46
49 | C[N+](C)(C)CCOC(N)=O [CARBAMYLCHOLINE] | > 46
50 | CCN(CC)CCOCCOC(=O)C1(c2ccccc2)CCCC1 [CARBETAPENTANE] | > 46
51 | NC(CSCC(=O)O)C(=O)O (stereo unspecified) [CARBOCISTEINE] | > 46
52 | C=CC(=O)O [CARBOMER 940] | > 46
53 | [NH2][Pt]1([NH2])[O]C(=O)C2(CCC2)C(=O)[O]1 [CARBOPLATIN] | > 46
54 | OC(=O)C1=CC=C2[NH]C=C(CCCCN3CC\C(=C/C3)C4=CC=CC=C4)C2=C1 [CARMOXIROLUM] | > 46
55 | COC(=O)CCC[N+](C)(C)C [CARPRONIUM CHLORIDE] | > 46
56 | N[S+](=O)([O-])c1ccc(C(=O)O)cc1 [CARZENIDUM] | > 46
